Read-outs that look alike come from different tables or passages of the source.

For one test, the target named is MCL-1 (Homo sapiens, UniProt Q07820). The test can be described thus: Protein-protein interaction assay MCL-1/Noxa BH3 peptide (MCL-1 assay), TR-FRET. The class given is binding. Particulars: MBP-MCL-1 / Noxa BH3-derived peptide, median. An outline of the steps: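 Inhibition values were normalized between DMSO controls with all reagents and controls lacking MCL-1. The binding competition used 1 nM MBP-MCL-1 in pH 7 Tris buffer containing 50 mM KF and 100 mM NaCl, with a 10 min compound preincubation at 22 °C.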
(In general: In TR-FRET formats the signal depends on donor and acceptor labels being close together.)

For test [1], the system named is SUDHL5. The test can be described thus: Induction of caspase-3/7 activity (Caspase-Glo 3/7), SUDHL5. The class given is cell-based. Particulars: Homo sapiens, SU-DHL-5, 3 h, caspase-3/7 induction, SUDHL5 cells, 3 h treatment; median. An outline of the steps: (§1)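 Apoptosis induction measured as caspase-3/7 activity (Caspase-Glo 3/7) in DLBCL lines after 3 h treatment at 37 °C; EC50 derived relative to the reference compound's maximal induction, with C0 fixed at 1.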

Test [2] concerns SUDHL10. Description: Induction of caspase-3/7 activity (Caspase-Glo 3/7), SUDHL10. Particulars: Homo sapiens, SU-DHL10, 3 h, caspase-3/7 induction, SUDHL10 cells, 3 h treatment; median. The class given is cell-based. The essentials: as §1
Test [3] has as its system SUDHL5. The test can be described thus: Anti-proliferative effect (CellTiter-Glo, 72 h), SUDHL5. It counts as cell-based. Particulars: Homo sapiens, SU-DHL-5, 72 h, SUDHL5 cells, antiproliferation, 72 h incubation, median, read-out: Antiproli SUDHL5 [M] (median). An outline of the steps: (§2)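 Luminescence from CellTiter-Glo, read 10 min after reagent addition, reports viable cell content after 72 h of compound treatment at 37 °C. A reference plate read at day 0 gives the starting baseline.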

Test [4] has as its system SUDHL10. Description: Anti-proliferative effect (CellTiter-Glo, 72 h), SUDHL10. The settings on record: Homo sapiens, SU-DHL10, 72 h, SUDHL10 cells, antiproliferation, 72 h incubation, median, read-out: Antiproli SUDHL10 [M] (median). It counts as cell-based. Here is the method: Assessment of the Anti-Proliferative Effect of Compounds in Different Cell Lines
The impact of compounds on the proliferation of different cell lines was assessed using the CellTiter-Glo® Luminescent Cell Viability reagent from Promega (G7573). Of note, SUDHL10 and SUDHL5 (DLBCL), NCI-H929 (Multiple Myeloma), A2780 (ovarian carcinoma) as well as MV-4-11(AML) cells are sensitive to MCL-1 inhibition.
In parallel, cells were plated in a reference (day 0) plate for time zero determination.
Rim wells were excluded. The cells were incubated for 72 h hours in a humidified incubator at 37° C. The day 0 plate was measured by adding 30 μl/well of CTG solution (CellTiter-Glo® Luminescent Cell Viability reagent, Promega G7573) to time zero wells in the reference plate followed by a 10 minutes incubation and luminescence reading at 0.1 ms, using the PHERAstar FS microplate reader (BMG Labtech).
After 72 h incubation, the treated plates were measured in the same way as the day 0 plate mentioned above.

A further test deals with A2780. Description: Anti-proliferative effect (CellTiter-Glo, 72 h), A2780. The class given is cell-based. The settings on record: A2780 cells, median, read-out: IC50 antiproliferation assay A2780 [M] (median). The essentials:
as §2
A general note: ATP-based viability assays read luminescence as a measure of living cells.

Test [5] deals with SUDHL5. Description: Induction of cytotoxicity (CellTiter-Glo, 5 h), SUDHL5. The settings on record: Homo sapiens, SU-DHL-5, 5 h, read-out: Cytotox SUDHL5 [M] (median), SUDHL5 cells, cytotoxicity induction, CellTiter-Glo, 5 h incubation, median.
In test [6] the test system is SUDHL10. The test can be described thus: Induction of cytotoxicity (CellTiter-Glo, 5 h), SUDHL10. Particulars: Homo sapiens, SU-DHL10, 5 h, read-out: Cytotox SUDHL10 [M] (median), SUDHL10 cells, cytotoxicity induction, CellTiter-Glo, 5 h incubation, median.

Chain of MCL-1 (Q07820 whole entry): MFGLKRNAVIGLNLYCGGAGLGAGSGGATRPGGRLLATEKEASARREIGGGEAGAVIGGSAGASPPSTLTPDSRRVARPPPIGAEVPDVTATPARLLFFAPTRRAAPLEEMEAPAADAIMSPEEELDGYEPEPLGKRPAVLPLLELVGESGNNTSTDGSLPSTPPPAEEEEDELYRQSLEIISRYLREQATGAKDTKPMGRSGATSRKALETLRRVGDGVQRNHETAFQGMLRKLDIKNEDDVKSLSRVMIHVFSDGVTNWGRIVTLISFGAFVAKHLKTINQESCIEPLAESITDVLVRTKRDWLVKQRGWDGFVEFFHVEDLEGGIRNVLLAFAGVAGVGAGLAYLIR

By EC50 is commonly meant the concentration that produces a half-maximal response. In the case of `Cc1nn(C)c2c1-c1cccc3c(CCCOc4cccc5ccccc45)c(C(=O)O)n(c13)CCCOC2` (racemic) [Example 043, (rac)-9,11-dimethyl-1-[3-(naphthalen-1-yloxy)propyl]-5,6,8,9-tetrahydro-4H-pyrazolo[4′,3′:8,9][(1,5]oxazecino[7,6,5-hi]indole-2-carboxylic Acid], the IC50 was 0.0127 µM at MCL-1; 1.05e-05 M in the test on SUDHL5 [3]; 4.93e-06 M with SUDHL10 [4]; 2.6e-05 M in the test with A2780; more than 3.3e-05 M in the test on A2780 (Homo sapiens, A2780, 72 h); 1.79e-05 M in the test with SUDHL5 [5]. Moreover, in the test on SUDHL10 [6], the IC50 was more than 3.3e-05 M. Also, the EC50 in the test on SUDHL5 [1] is 18.7 µM; in the test on SUDHL10 [2], more than 33 µM.

For `Cc1nn(C)c2c1-c1cccc3c(CCCOc4cccc5cc(F)ccc45)c(C(=O)O)n(c13)CCCOC2` (racemic) [Example 046, (rac)-1-{3-[(6-fluoronaphthalen-1-yl)oxy]propyl}-9,11-dimethyl-5,6,8,9-tetrahydro-4H-pyrazolo[4′,3′:8,9][1,5]oxazecino[7,6,5-hi]indole-2-carboxylic Acid], the IC50 on MCL-1 was found to be 0.0108 µM; with SUDHL5 [3] it was 6.27e-06 M; in the test on SUDHL10 [4] it was 3.94e-06 M; in the test on A2780 (Homo sapiens, A2780, 72 h), 2.65e-05 M; in the test with SUDHL5 [5], 6.09e-06 M; with SUDHL10 [6] it was 2.33e-05 M. For the same compound, the EC50 amounted to 5.7 µM in the test with SUDHL5 [1] and 17 µM in the test on SUDHL10 [2].

On to `Cc1cc2c(OCCCc3c(C(=O)O)n4c5c(cccc35)-c3c(C)nn(C)c3COCCCC4)cccc2cc1F` (racemic) [Example 049, (rac)-7-{3-[(6-fluoro-7-methylnaphthalen-1-yl)oxy]propyl}-1,3-dimethyl-1,10,11,12,13,15-hexahydropyrazolo[4′,3′:9,10][1,6]oxazacycloundecino[8,7,6-hi]indole-8-carboxylic Acid], for which the IC50 on MCL-1 amounted to 0.00318 µM; in the test on SUDHL5 [3], 1.1e-05 M; with SUDHL10 [4] it was 6.98e-06 M; with A2780 (Homo sapiens, A2780, 72 h), 1.57e-05 M; with SUDHL5 [5], 1.13e-05 M; with SUDHL10 [6] it was 3.14e-05 M. Moreover, the concentration giving a half-maximal response (EC50) in the test on SUDHL5 [1] is 14.2 µM; in the test on SUDHL10 [2], more than 33 µM.

For `Cn1nc2c(c1CN1CCOCC1)-c1cccc3c(CCCOc4cccc5ccccc45)c(C(=O)O)n(c13)CCOCCOC2` (racemic) [Example 087], the IC50 is 0.097 µM against MCL-1; more than 3.3e-05 M with SUDHL5 [3]; 1.41e-05 M in the test with SUDHL10 [4]; more than 3.3e-05 M in the test on A2780 (Homo sapiens, A2780, 72 h); more than 3.3e-05 M in the test with SUDHL5 [5]; more than 3.3e-05 M in the test with SUDHL10 [6]. Also, the EC50 in the test with SUDHL5 [1] and in the test on SUDHL10 [2] was more than 33 µM each time.

Regarding `CCn1nc(C2CC2)c2c1COCCCCn1c(C(=O)O)c(CCCOc3cccc4ccccc34)c3cccc-2c31` (racemic) [Example 088, (rac)-3-Cyclopropyl-1-ethyl-7-[3-(naphthalen-1-yloxy)propyl]-1,10,11,12,13,15-hexahydropyrazolo[4′,3′:9,10][1,6]oxazacycloundecino[8,7,6-hi]indole-8-carboxylic Acid], the IC50 is 0.00694 µM at MCL-1; 1.76e-05 M in the test on SUDHL5 [3]; 2.67e-05 M in the test with SUDHL10 [4]; 2.35e-05 M with A2780 (Homo sapiens, A2780, 72 h); 1.1e-05 M in the test on SUDHL5 [5]; more than 3.3e-05 M in the test with SUDHL10 [6]. For the same compound, the EC50 in the test with SUDHL5 [1] was 13.5 µM; with SUDHL10 [2], more than 33 µM.

On to `Cc1c2c(nn1C1CC1)COCCCCn1c(C(=O)O)c(CCCOc3cccc4ccccc34)c3cccc-2c31` (racemic) [Example 092, (rac)-2-cyclopropyl-3-methy-7-[3-(naphthalen-1-yloxy)propyl]-2,10,11,12,13,15-hexahydropyrazolo[4′,3′:9,10][1,6]oxazacycloundecino[8,7,6-hi]indole-8-carboxylic Acid], for which the IC50 against MCL-1 is 0.00708 µM; in the test on SUDHL5 [3] it was 8.25e-06 M; in the test on SUDHL10 [4], 2.06e-06 M; in the test on A2780 (Homo sapiens, A2780, 72 h), 2.48e-05 M; in the test with SUDHL5 [5], 6.75e-06 M; in the test with SUDHL10 [6], 2.23e-05 M. Moreover, the values for the EC50 in the test with SUDHL5 [1] and with SUDHL10 [2] were 6.16 µM and 20.2 µM, respectively.

Turning to `Cc1nn(CC(F)(F)F)c2c1-c1cccc3c(CCCOc4cccc5ccccc45)c(C(=O)O)n(c13)C/C=C\COC2` (racemic) [Example 098, (rac)-(11Z)-3-methyl-7-[3-(naphthalen-1-yloxy)propyl]-12-(2,2,2-trifluoroethyl)-1,10,13,15-tetrahydropyrazolo[4′,3′:9,10][1,6]oxazacycloundecino[8,7,6-hi]indole-8-carboxylic Acid], the IC50 against MCL-1 was 0.0827 µM; in the test on SUDHL5 [3], 2.74e-05 M; in the test with SUDHL10 [4], 1.15e-05 M; in the test on A2780 (Homo sapiens, A2780, 72 h) it was 2.09e-05 M; in the test on SUDHL5 [5] it was 2.94e-05 M; in the test on SUDHL10 [6] it was more than 3.3e-05 M. Further, the EC50 in the test with SUDHL5 [1] and in the test on SUDHL10 [2] was more than 33 µM each time.

In the case of `COCc1c2c(nn1C)COCCCCn1c(C(=O)O)c(CCCOc3cccc4ccccc34)c3cccc-2c31` (racemic) [Example 099, (rac)-3-(methoxymethyl)-2-methyl-7-[3-(naphthalen-1-yloxy)propyl]-2,10,11,12,13,15-hexahydropyrazolo[4′,3′:9,10][1,6]oxazacycloundecino[8,7,6-hi]indole-8-carboxylic Acid], the IC50 against MCL-1 turned out to be 0.0043 µM; in the test on SUDHL5 [3], 8.47e-06 M; with SUDHL10 [4], 1.08e-05 M; with A2780 (Homo sapiens, A2780, 72 h) it was 2.11e-05 M; in the test on SUDHL5 [5], 3.86e-06 M; in the test on SUDHL10 [6], 1.75e-05 M. Further, the EC50 came to 5.2 µM in the test with SUDHL5 [1] and 12.8 µM in the test with SUDHL10 [2].

As to `COCc1c2c(nn1C)COCCCCn1c(C(=O)O)c(CCCOc3cccc4c3CCCC4)c3cccc-2c31` (racemic) [Example 105, (rac)-3-(methoxymethyl)-2-methyl-7-[3-(5,6,7,8-tetrahydronaphthalen-1-yloxy)propyl]-2,10,11,12,13,15-hexahydropyrazolo[4′,3′:9,10][1,6]oxazacycloundecino[8,7,6-hi]indole-8-carboxylic Acid], the IC50 on MCL-1 was 0.00268 µM; with SUDHL5 [3], 1.01e-05 M; in the test on SUDHL10 [4], 9.89e-06 M; with A2780 (Homo sapiens, A2780, 72 h), 1.49e-05 M; with SUDHL5 [5] it was 7.19e-06 M; in the test on SUDHL10 [6], 1.92e-05 M. The EC50 with SUDHL5 [1] stood at 8.27 µM; in the test with SUDHL10 [2] it was 23.9 µM.

As for `CCNCc1nn(C)c2c1-c1cccc3c(CCCOc4cccc5ccccc45)c(C(=O)O)n(c13)CCCCOC2` (racemic) [Example 156, (rac)-3-[(ethylamino)methyl]-1-methyl-7-[3-(naphthalen-1-yloxy)propyl]-1,10,11,12,13,15-hexahydropyrazolo[4′,3′:9,10][1,6]oxazacycloundecino[8,7,6-hi]indole-8-carboxylic Acid], the IC50 at MCL-1 was 0.152 µM; with SUDHL5 [3], more than 3.3e-05 M; in the test with SUDHL10 [4] it was 2.23e-05 M; in the test with A2780 (Homo sapiens, A2780, 72 h) it was more than 3.3e-05 M; in the test with SUDHL5 [5], more than 3.3e-05 M; with SUDHL10 [6], more than 3.3e-05 M. Moreover, the EC50 in the test on SUDHL5 [1] and in the test on SUDHL10 [2] was more than 33 µM in each case.

For the compound `CN1CCCn2c(C(=O)O)c(CCCOc3cccc4ccccc34)c3cccc(c32)-c2c(CN3CCOCC3=O)nn(C)c2C1` (racemic) [Example 157, (rac)-7,9-dimethyl-1-[3-(naphthalen-1-yloxy)propyl]-11-[(3-oxomorpholin-4-yl)methyl]-4,5,6,7,8,9-hexahydropyrazolo[3′,4′:7,8][1,5]diazecino[9,10,1-hi]indole-2-carboxylic Acid], the IC50 against MCL-1 is 0.289 µM; in the test on SUDHL5 [3], more than 3.3e-05 M; in the test with SUDHL10 [4] it was more than 3.3e-05 M; in the test on A2780 (Homo sapiens, A2780, 72 h), more than 3.3e-05 M; in the test with SUDHL5 [5] it was more than 3.3e-05 M; in the test on SUDHL10 [6], more than 3.3e-05 M. Besides, the EC50 in the test with SUDHL5 [1] and in the test with SUDHL10 [2] was more than 33 µM each time.

These data come from patent US10981932B2, “Macrocyclic indole derivatives” (Bayer Aktiengesellschaft, priority 2016, dated 2021).
